# Laboratory results as given in US8828976B2, “Identification and use of compounds that affect the fidelity of eukaryotic translation initiation codon selection” (priority 2010, dated 2014).
# Structures can show the parent of a compound that is named as a salt. Where two headings read alike, the source gives them in different places.
# Tests used:
# [1] = test system: UUG start codon of Fluc mRNA (fidelity of start codon selection); assay: Dual luciferase assay, primary screen (FlucUUG/RlucAUG), BY4741 with pFuugRaug; assay type: cell-based, Saccharomyces cerevisiae; details: for raw FlucUUG value: at concentrations that decrease the other luciferase values
# Text: In the assay, Renilla luciferase (Rluc) and firefly luciferase (Fluc) genes are expressed from a single plasmid, each under the control of a separate constitutive promoter and terminator, allowing transcription of the two genes as separate mRNAs. The Fluc mRNA has a non-AUG start codon (FIG. 2A). […] UUG was chosen as the near cognate start site in the screen, allowing easy identification of compounds that either increase expression (chemically reproducing a Sui^− phenotype, decreasing fidelity) or decrease expression (enhancing fidelity) of UUG relative to AUG in the dual luciferase assay.
# BY4741 expressing the RaugFaug plasmid was included in the 1st and last column as an additional control. Compounds to be tested were supplied from the NCI DTP library in 96 well format at 1 mM in DMSO. DMSO was included in all control wells. 1.5 μL of compound (or DMSO) was added to each well of the yeast plate, followed by incubation at 30° C. for 4 hours while shaking. […] The same protocol was used when testing the other libraries, with the appropriate solvent controls. The Fuug/Raug ratio of each sample with drug was compared to the average Fuug/Raug ratio of the solvent only controls on the same plate.
# Every row contains DMSO-only controls for each strain. For each compound-treated sample, the ratio of [Fluc(UUG)/Rluc(AUG)]/[Fluc(AUG)/Rluc(AUG)] is calculated using the DMSO-only Fluc(AUG)/Rluc(AUG) control from that row (there is one for each row in a plate). This ratio is the Fluc(UUG)/Fluc(AUG) ratio normalized to Rluc(AUG) activity in each sample. […] Potential changes include pipetting inaccuracies, differences in lysis efficiencies or global effects on gene expression due to differences in cell densities during growth. The internal Rluc control also helps screen out compounds that affect gene expression or cell growth globally rather than having specific effects on translation from non-AUG codons.
# When a hit was identified, rescreening and counter screening assays were done using 300 μM to 10 nM of the compound, i.e., the identified “hit,” to measure concentration dependence.
# [2] = test system: AUG start codon of Fluc mRNA; assay: Dual luciferase counter-screen (FlucAUG/RlucAUG), BY4741 with pFaugRaug; assay type: cell-based, Saccharomyces cerevisiae; details: for FlucAUG/RlucAUG ratio in the presence of compound: BY4741, screening conditions
# Protocol: The compounds were then tested in secondary assays.
# The dual luciferase assay was carried out as in Kolitz et al. (RNA, vol. 15, no. 1, pp. 138-152, 2009), with the following modifications to screening conditions: An over-night culture of wild type yeast (BY4741 transformed with pFuugRaug) were diluted to an OD600 of approximately 0.2 in SC-Ura, and 50 μL were aliquoted to each well of a 96 well plate. BY4741 expressing the RaugFaug plasmid was included in the 1st and last column as an additional control. Compounds to be tested were supplied from the NCI DTP library in 96 well format at 1 mM in DMSO. DMSO was included in all control wells. 1.5 μL of compound (or DMSO) was added to each well of the yeast plate, followed by incubation at 30° C. for 4 hours while shaking. To measure luciferase activity, 1 μL of culture was added directly to 50 μL of 1× Passive Lysis Buffer (Promega), incubated 40-60 minutes at room temperature, then luciferase activity measured using a Turner Modulus Microplate Reader (Kolitz et al., RNA, vol. 15, no. 1, pp. 138-152, 2009). The same protocol was used when testing the other libraries, with the appropriate solvent controls. The Fuug/Raug ratio of each sample with drug was compared to the average Fuug/Raug ratio of the solvent only controls on the same plate.
# Changes in the Fluc(UUG)/Rluc(AUG) ratio could be caused by a compound altering the use of UUG as a start codon (the desired target) or a variety of other effects such as changes in transcription of one gene, changes in mRNA or protein half-life, or inhibition or activation of one of the luciferase enzymes. […] Compounds that specifically increase use of near-cognate codons as start sites will not produce an effect in this Fluc(AUG)/Rluc(AUG) assay, whereas compounds that alter other process will not be specific for the Fluc(UUG)/Rluc(AUG) system and will still produce effects with the Fluc(AUG)/Rluc(AUG) reporter. Compounds that are not specific for effects on Fluc(UUG) expression will not be pursued further.
# [3] = test system: near-cognate start codons; assay: Dual luciferase assay with Fluc reporters with different near-cognate start codons; assay type: cell-based, Saccharomyces cerevisiae; details: Fluc reporter with AUU start codon
# Protocol: AAG and AGG are not used detectably as Fluc initiation codons in yeast (Kolitz et al., RNA, vol. 15, no. 1, pp. 138-152, 2009) and were thus not tested. […] Efficiency of use of near cognate codons as initiation sites was measured with the dual luciferase assay in several Sui^− mutant strains. Translation from each alternative start codon in the Sui^− strain was normalized to translation from that codon in a wild type strain. Sui^− mutations increase the use of near cognates up to 18-fold (GUG in eIF1 D83G strain). However, in each mutant strain, translation from AUU is increased the least. Although it is not understood why AUU behaves anomalously, it is interesting that NSC218351 mimics this aspect of the behavior of the Sui^− mutations in initiation factors.
# [4] = test system: UUG start codon of PRE2 uORF; assay: uORF luciferase assay (PRE2 uORF with UUG start codon fused to firefly luciferase); assay type: cell-based, Saccharomyces cerevisiae; details: wild type yeast, normalized to DMSO alone
# Protocol: BY4741 was transformed with pNTI33 or pNTI32. Transformants were incubated with compound and luciferase activity measured as described for the dual luciferase assay. The solvent-only firefly luciferase activity was used for normalization.
# To further validate the effects of compounds that pass the primary and counterscreens, an additional reporter assay was performed. The assay uses a 5′-upstream open reading frame (uORF) that begins with a UUG codon and was shown in yeast to be translated, especially under amino acid starvation conditions (Castilho-Valavicius et al., Genetics, vol. 124, pp. 483-495, 1990). This uORF was fused both in-frame and out-of-frame to the firefly luciferase gene and the effect of the compounds on initiation on this physiologically relevant near-cognate start codon assessed.
# This construct was used to assess the effect of the compounds on translation mediated by the non-AUG start codon of the uORFs. The PRE2 uORF has an UUG start codon, with the consensus sequence (−3)AAA(−1) directly upstream of UUG (FIG. 15). In the control reporter, the luciferase coding region is out-of-frame from the start codon of the uORF.
# [5] = test system: Sui- strains with mutations in eIF1A, eIF2, and eIF5; assay: Growth of Sui- strains with mutations in other initiation factors; assay type: cell-based, Saccharomyces cerevisiae
# Text: (§1) While small, the effects are reproducible. No effects on growth of Sui^− strains with mutations in other initiation factors (eIF1A, eIF2, and eIF5) have been detected.
# [6] = test system: FlucUUG/RlucAUG ratio in hc eIF1 strain; assay: Dual luciferase assay in strain over-expressing eIF1 (H3984, hc eIF1); assay type: cell-based, Saccharomyces cerevisiae; details: hc eIF1 vs BY4741; for suppression of the compound's effect on UUG initiation by over-expression of eIF1: 60 μM NSC218351, 3.8 μM NSC92218
# Protocol: H3984 data are an average of 2 independent experiments. Error bars represent average deviation. The concentration of NSC218351 was 60 μM, and NSC92218 was 3.8 μM. Haplo-insufficiency results are averages of data from 2 separate transformants. The concentration of NSC218351 was 33 μM, and NSC92218 was 7 μM. FlucAUG/RlucAUG expression ratio with DMSO alone was used to normalize the Fluc/Rluc ratio for both FlucAUG and FlucUUG for each strain (normalized FlucAUG/RlucAUG with DMSO alone is 1 for each strain).
# Data, from 2 independent experiments, were analyzed.
# [7] = test system: Sui- mutant eIF1 D83G; assay: Growth of Sui- mutant eIF1 D83G in His- culture (doubling time); assay type: cell-based, Saccharomyces cerevisiae; details: His- culture with compound; decreased from 8 hrs
# Text: Doubling times were quantified for two experiments by plotting Log2(OD600) vs. time. The slope of the line between −2.5<Log2(OD600)<2 equals 1/doubling time.
# as §1
# [8] = test system: Sui- strain sui1-1 (eIF1 D83G); assay: Growth assay of Sui- strain sui1-1 (his4-303) on SC-His / SC plates with compound-soaked paper strips; details: for growth of sui1-1 close to the compound source: paper strip with 10 mM NSC92218 or 50 mM NSC218351, FIG. 18 column 1 and 5
# Text: Compound or solvent soaked paper strips were placed on agar plates. Yeast were spotted onto the plate as 4 rows increasingly distant from the paper strip and grown for 4 days on SC-His and 2 days on SC.
# An additional reporter assay utilizes a yeast strain in which the AUG start codon of the HIS4 gene has been changed to AUU (his4-303) (Huang et al., Genes Dev., vol. 11, pp. 2396-2413, 1997). This strain is a histidine auxotroph and cannot grow on medium lacking histidine. However, Sui^− mutations allow initiation from the AUU start site or, more commonly, a UUG three codons downstream from it, restoring expression of His4p and thus growth on His^− medium (Castilho-Valavicius et al., Genetics, vol. 124, pp. 483-495, 1990; Huang et al., Genes Dev., vol. 11, pp. 2396-2413, 1997; Yoon et al., Mol. Cell. Biol., vol. 12, pp. 248-260, 1992). Observing an alteration of the Sui^− phenotype is a more sensitive assay than rescuing growth of a wild type strain. […] Likewise, if the compound increases the fidelity of initiation, then growth should be compromised.
# Yeast with the his4-303 allele from an over-night culture were washed with water and diluted to an OD600 between 0.1-1. Strips of sterile Whatman paper were soaked with compound or solvent and placed on an agar plate of the appropriate media. The yeast culture was spotted onto the plate at various distances from the paper strips. The plates were incubated at 30° C. Diffusion creates a gradient of compound, which tends to enhance growth only in a certain range because of off-setting toxicity at high concentrations.
# Chemically increasing use of near-cognate codons as start codons mimics the Sui^− phenotype. Sui^− mutations were originally identified in a screen that requires translation initiation at a non-AUG start codon in a mutant of the HIS4 gene (his4-303 allele) for growth on SC-His media (Donahue et al., Mol. Cell. Biol., vol. 8, no. 7, pp. 2955-2963, 1988). Compounds that increase the use of non-AUG start codons to a small degree should further increase growth of Sui^− strains with the his4-303 allele on SC-His media, chemically enhancing the Sui^− phenotype. To test this, a paper strip saturated with compound was placed onto a plate of media (SC or SC-His). Yeast with the his4-303 allele was spotted on the plate at various distances from the compound- or solvent-containing strips.
# [9] = test system: yeast cells; assay: Growth / toxicity to wild type yeast
# [10] = 50 mM on the paper strip, SC-His
# [11] = analogs of NSC92218, 8 μM, ratio normalized to DMSO control
smiles,measurement,setting,value
"O=C(O)c1nccc2ccccc12 [NSC218351, isoquinoline-1-carboxylic acid]","minimal concentration for the effect, NSC218351 relative to NSC92218","[1]; 60 μM vs 15 μM, higher for NSC218351",4 fold
same,minimal concentration required to achieve the 1.8-fold increase of the UUG/AUG ratio,[1]; BY4741,60 µM
same,increase of the FlucUUG/RlucAUG ratio,"[1]; BY4741, 4 hours with compound, reached at 60 μM NSC218351 / 15 μM NSC92218",1.8 fold
same,raw FlucUUG value,[1],increased slightly
same,raw RlucAUG value,"[1]; pFuugRaug plasmid, increasing concentration",decreased
same,FlucAUG/RlucAUG ratio in the presence of compound,[2],does not change
same,initiation at AUU codons,[3],did not increase
same,increase of expression of the in-frame PRE2 uORF-Fluc reporter,[4],approximately 1.5 fold
same,"growth of Sui- strains with mutations in other initiation factors (eIF1A, eIF2, and eIF5)",[5],No effects
same,suppression of the compound's effect on UUG initiation by over-expression of eIF1,[6],completely suppressed
same,doubling time of eIF1 D83G,[7],7.35 h
same,growth of sui1-1 on SC-His in the column closest to the compound source,"[8]; 12.5 mM on the paper strip, column 1",enhanced
same,growth of sui1-1 on selective media close to the drug source,[8]; [10],inhibited
same,growth of sui1-1 on selective media farther from the source relative to DMSO,[8]; [10],enhanced
same,growth of the eIF1 Sui- strains on His- plates,[8]; His- plates,enhances the growth
same,growth of sui1-1 close to the compound source,[8],slowed growth
same,toxicity to yeast cells,[9],not toxic
same,concentration that does not affect growth of wild type yeast while the FlucUUG/RlucAUG ratio increases,[9],50 µM
same,concentration at which growth was reduced,[9]; yeast,300 µM
same,working concentrations at which toxicity is not a concern,[9]; yeast,10 to 100 µM
"Nc1cc(I)c2cccnc2c1O [NSC92218, 7-amino-5-iodo-8-quinolinol hydrochloride]",increase of the FlucUUG/RlucAUG ratio,[1],1.8 fold
same,minimal concentration required to achieve the 1.8-fold increase of the UUG/AUG ratio,[1],15 µM
same,raw FlucUUG value,[1],"did not change, or increases slightly"
same,FlucAUG/RlucAUG ratio in the presence of compound,[2],did not change
same,increase of expression of the in-frame PRE2 uORF-Fluc reporter,[4],~2 fold
same,reduction of the compound's effect in the eIF1 over-expressing strain relative to wild type cells,[6]; 3.8 μM,~50%
same,suppression of the compound's effect on UUG initiation by over-expression of eIF1,[6],partially
same,growth of sui1-1 in column 1 on SC-His relative to the inhibitory effect on SC,[8]; 2.5 mM on the paper strip,growth enhancement occurred
same,growth of sui1-1 on SC-His in columns 2 and 3,[8]; 10 mM on the paper strip,enhanced growth
same,growth of sui1-1 close to the compound source,[8],prevented growth
same,concentration that does not affect growth of wild type yeast while the FlucUUG/RlucAUG ratio increases,[9],2 µM
"COc1cc(N)c2ncccc2c1Cl [Cpd 19, 5-chloro-6-methoxyquinolin-8-amine]",UUG/AUG (primary screen effect),[1]; [11],0.94
same,AUG/AUG (counter screen effect),[2]; [11],0.99
"C[C@@H]1C[C@@H]([C@H](O)CC2CC(=O)NC(=O)C2)C(=O)[C@@H](C)C1 [cycloheximide, reference compound]",effect on FlucUUG/RlucAUG ratio,[1]; BY4741 grown under screening conditions,altered
same,raw luciferase values relative to control values,"[1]; cells grown under screening conditions, four hours",~25%
same,FlucAUG/RlucAUG ratio in the presence of compound,[2],also altered
